From article PMC11702666, “The anti-COVID-19 drug Paxlovid crosses biological barriers of the placenta and brain in rats” (npj Viruses, 2024)
“Also recorded” adds a separate entry of the source. Read-outs that look alike come from different tables or passages of the source.

Experiments:
[1] = system: zebrafish embryo; settings: zebrafish embryo model; therapeutic doses in humans; cited from earlier work
[2] = in vivo; settings: female, Sprague-Dawley, rat, iv, pregnant rats; for AUC(0-t): AUClast; for Kp: AUCtissue/AUCblood (maternal blood-to-tissue transfer ratio); for clearance: CL (clearance); for MRT: MRT (mean residence time); for half-life: t1/2 (elimination half-life)
[3] = PBPK model LeiCNS-PK3.0; recommended dosing regimen; cited from earlier work
[4] = for nirmatrelvir concentration in dialysate sample: 60 min after nirmatrelvir 15 mg/kg i.v., representative sample
[5] = for nirmatrelvir concentration in dialysate sample: 60 min after nirmatrelvir 15 mg/kg i.v., representative sample; remark: listed apart in the source
[6] = for Autosampler stability: 4°C for 6 hours; for Long-term stability: -20°C for 1 month; for Bench-top stability: room temperature for 6 hours; for Freeze‒thaw stability: three cycles
[7] = oral; cited from earlier work
[8] = system: SARS-CoV-2; set-up: method as in PMID 34726479; settings: 90% inhibition of viral replication, cited from earlier work
[9] = in vivo; settings: male, Sprague-Dawley, rat, iv, 15 mg/kg; for AUC(0-t): AUClast; for AUC(0-t) / clearance / Cmax / MRT / Tmax / half-life: male rats; for clearance: CL (clearance); for MRT: MRT (mean residence time); for half-life: t1/2 (elimination half-life)
[10] = in vivo; settings: female, Sprague-Dawley, rat, iv, 15 mg/kg; for AUC(0-t): AUClast; for AUC(0-t) / clearance / Cmax / MRT / Tmax / half-life: nonpregnant female rats; for clearance: CL (clearance); for MRT: MRT (mean residence time); for half-life: t1/2 (elimination half-life)
[11] = 15 mg/kg, amniotic fluid, nirmatrelvir 15 mg/kg i.v. alone
[12] = 15 mg/kg, amniotic fluid, nirmatrelvir 15 mg/kg i.v. plus ritonavir 7 mg/kg i.v.
[13] = 15 mg/kg, fetus, nirmatrelvir 15 mg/kg i.v. alone
[14] = 15 mg/kg, fetus, nirmatrelvir 15 mg/kg i.v. plus ritonavir 7 mg/kg i.v.
[15] = 15 mg/kg, maternal blood, nirmatrelvir 15 mg/kg i.v. alone
[16] = 15 mg/kg, maternal blood, nirmatrelvir 15 mg/kg i.v. plus ritonavir 7 mg/kg i.v.
[17] = 15 mg/kg, placenta, nirmatrelvir 15 mg/kg i.v. alone
[18] = 15 mg/kg, placenta, nirmatrelvir 15 mg/kg i.v. plus ritonavir 7 mg/kg i.v.
[19] = amniotic fluid dialysate, 5 ng/mL
[20] = amniotic fluid dialysate, 250 ng/mL
[21] = male rat blood dialysate, 5 ng/mL
[22] = male rat blood dialysate, 250 ng/mL
[23] = male rat brain dialysate, 5 ng/mL
[24] = male rat brain dialysate, 250 ng/mL
[25] = pregnant rat maternal blood dialysate, 5 ng/mL
[26] = pregnant rat maternal blood dialysate, 250 ng/mL
[27] = blood, nirmatrelvir 15 mg/kg i.v. alone
[28] = blood, nirmatrelvir 15 mg/kg i.v. plus ritonavir 7 mg/kg i.v.
[29] = brain, nirmatrelvir 15 mg/kg i.v. alone
[30] = brain, nirmatrelvir 15 mg/kg i.v. plus ritonavir 7 mg/kg i.v.

## CC(C)(C)[C@H](NC(=O)C(F)(F)F)C(=O)N1C[C@H]2[C@@H]([C@H]1C(=O)N[C@H](C#N)C[C@@H]1CCNC1=O)C2(C)C [Nirmatrelvir]
[1]
  survival rates and morphological defects: does not affect survival rates or induce morphological defects; also recorded: did not affect survival rates or induce morphological defects
[2]; [11]
  AUC(0-t): 4740 ng·h/mL
  Kp: 0.12 ± 0.03
  Cmax: 1840 ± 490 ng/mL
  MRT: 4.83 h
  Tmax: 1.05 h
  half-life: 2.78 ± 0.683 h
[2]; [12]
  AUC(0-t): 17200 ng·h/mL
  Cmax: 6590 ± 1840 ng/mL
  MRT: 7.62 h
  Tmax: 3.6 h
  half-life: 4.02 ± 1.75 h
[2]; [13]
  AUC(0-t): 2830 ng·h/mL
  Kp: 0.06 ± 0.01
  Cmax: 960 ± 190 ng/mL
  MRT: 5.13 h
  Tmax: 1.17 h
  half-life: 3.03 ± 1 h
[2]; [14]
  AUC(0-t): 5720 ng·h/mL
  Cmax: 1720 ± 600 ng/mL
  MRT: 21.1 h
  Tmax: 3.93 h
  half-life: 13.7 ± 9.1 h
[2]; [15]
  AUC(0-t): 52200 ng·h/mL
  clearance: 5 ± 0.4 mL/min/kg
  Cmax: 156000 ± 24000 ng/mL
  MRT: 0.8 h
  half-life: 0.25 ± 0.0167 h
[2]; [16]
  AUC(0-t): 120000 ng·h/mL
  clearance: 2.14 ± 0.15 mL/min/kg
  Cmax: 171000 ± 52300 ng/mL
  MRT: 3.22 h
  half-life: 0.667 ± 0.117 h
[2]; [17]
  AUC(0-t): 8010 ng·h/mL
  Kp: 0.15 ± 0.03
  Cmax: 3560 ± 320 ng/mL
  MRT: 2.53 h
  Tmax: 0.667 h
[2]; [18]
  AUC(0-t): 18000 ng·h/mL
  Cmax: 4400 ± 820 ng/mL
  MRT: 6.92 h
  Tmax: 2.2 h
  half-life: 4.27 ± 0.65 h
[2]; amniotic fluid, nirmatrelvir 15 mg/kg i.v. plus ritonavir 7 mg/kg i.v.
  Kp: 0.2 ± 0.07
[2]; fetus, nirmatrelvir 15 mg/kg i.v. plus ritonavir 7 mg/kg i.v.
  Kp: 0.06 ± 0.02
[2]; placenta, nirmatrelvir 15 mg/kg i.v. plus ritonavir 7 mg/kg i.v.
  Kp: 0.13 ± 0.02
[3]
  predicted brain penetration / effective concentrations against SARS-CoV-2: achieves effective concentrations against SARS-CoV-2 in human brain cells
[4]; blood dialysate
  nirmatrelvir concentration in dialysate sample: 78.01 ng/mL
[4]; brain dialysate
  nirmatrelvir concentration in dialysate sample: 36.36 ng/mL
[4]; male rats
  protein unbound nirmatrelvir concentrations in blood and brain versus EC90: all higher than the EC90
[5]; amniotic fluid dialysate
  nirmatrelvir concentration in dialysate sample: 27.61 ng/mL
[5]; fetus dialysate
  nirmatrelvir concentration in dialysate sample: 37 ng/mL
[5]; maternal blood dialysate
  nirmatrelvir concentration in dialysate sample: 344.8 ng/mL
[5]; placenta dialysate
  nirmatrelvir concentration in dialysate sample: 95.13 ng/mL
[5]; pregnant rats, regular dose of Paxlovid
  nirmatrelvir level in conceptus (fetus, placenta, amniotic fluid) versus EC90: higher than the EC90
[6]; [19]
  Autosampler stability: 101.84 ± 1.89%
  Long-term stability: 97.21 ± 0.39%
  Bench-top stability: 104.82 ± 1.50%
  Freeze‒thaw stability: 107.43 ± 5.37%
[6]; [20]
  Autosampler stability: 102.44 ± 2.35%
  Long-term stability: 93.43 ± 1.54%
  Bench-top stability: 98.60 ± 1.46%
  Freeze‒thaw stability: 99.39 ± 4.32%
[6]; fetus dialysate, 5 ng/mL
  Autosampler stability: 95.10 ± 0.47%
  Long-term stability: 95.20 ± 1.21%
  Bench-top stability: 102.37 ± 2.51%
  Freeze‒thaw stability: 107.56 ± 0.63%
[6]; fetus dialysate, 250 ng/mL
  Autosampler stability: 97.12 ± 1.94%
  Long-term stability: 91.79 ± 1.56%
  Bench-top stability: 101.02 ± 0.48%
  Freeze‒thaw stability: 98.02 ± 2.49%
[6]; [21]
  Autosampler stability: 95.56 ± 6.20%
  Long-term stability: 89.61 ± 1.00%
  Bench-top stability: 104.5 ± 1.73%
  Freeze‒thaw stability: 100.3 ± 3.40%
[6]; [22]
  Autosampler stability: 94.23 ± 4.18%
  Long-term stability: 88.54 ± 1.07%
  Bench-top stability: 97.60 ± 0.73%
  Freeze‒thaw stability: 88.57 ± 0.33%
[6]; [23]
  Autosampler stability: 92.51 ± 2.01%
  Long-term stability: 90.07 ± 2.77%
  Bench-top stability: 100.6 ± 0.37%
  Freeze‒thaw stability: 99.58 ± 1.02%
[6]; [24]
  Autosampler stability: 93.59 ± 4.41%
  Long-term stability: 87.36 ± 2.58%
  Bench-top stability: 95.79 ± 0.24%
  Freeze‒thaw stability: 92.01 ± 0.29%
[6]; placenta dialysate, 5 ng/mL
  Autosampler stability: 101.55 ± 6.56%
  Long-term stability: 97.38 ± 0.55%
  Bench-top stability: 100.37 ± 1.24%
  Freeze‒thaw stability: 101.85 ± 4.27%
[6]; placenta dialysate, 250 ng/mL
  Autosampler stability: 98.14 ± 3.84%
  Long-term stability: 88.97 ± 1.33%
  Bench-top stability: 98.87 ± 0.27%
  Freeze‒thaw stability: 100.83 ± 0.95%
[6]; [25]
  Autosampler stability: 102.98 ± 4.81%
  Long-term stability: 87.18 ± 0.87%
  Bench-top stability: 96.42 ± 2.53%
  Freeze‒thaw stability: 101.21 ± 2.66%
[6]; [26]
  Autosampler stability: 98.97 ± 4.80%
  Long-term stability: 87.65 ± 1.83%
  Bench-top stability: 98.68 ± 1.18%
  Freeze‒thaw stability: 105.98 ± 2.99%
[7]
  bioavailability: approximately 50%
[8]
  unbound EC90: 0.0905 µg/mL
[8]; unbound
  EC90: 181 nM
[9]
  Kp: 0.26 ± 0.03
[9]; [27]
  AUC(0-t): 12900 ng·h/mL
  clearance: 21 ± 2.8 mL/min/kg
  Cmax: 26500 ± 4450 ng/mL
  MRT: 0.717 h
[9]; [28]
  AUC(0-t): 80500 ng·h/mL
  clearance: 3.16 ± 0.18 mL/min/kg
  Cmax: 94500 ± 27600 ng/mL
  MRT: 2.32 h
  half-life: 0.833 ± 0.15 h
[9]; [29]
  AUC(0-t): 3540 ng·h/mL
  Cmax: 2520 ± 320 ng/mL
  MRT: 1.53 h
  Tmax: 0.333 h
  half-life: 1.1 ± 0.117 h
[9]; [30]
  AUC(0-t): 5190 ng·h/mL
  Cmax: 2020 ± 350 ng/mL
  MRT: 3.4 h
  Tmax: 0.45 h
  half-life: 2.05 ± 0.367 h
[10]
  Kp: 0.21 ± 0.04
[10]; [27]
  AUC(0-t): 16800 ng·h/mL
  clearance: 16 ± 2.02 mL/min/kg
  Cmax: 35600 ± 2110 ng/mL
  MRT: 0.667 h
  half-life: 0.333 ± 0.0333 h
[10]; [28]
  AUC(0-t): 69400 ng·h/mL
  clearance: 3.73 ± 0.29 mL/min/kg
  Cmax: 107000 ± 7400 ng/mL
  MRT: 1.32 h
  half-life: 0.417 ± 0.0167 h
[10]; [29]
  AUC(0-t): 3120 ng·h/mL
  Cmax: 2420 ± 460 ng/mL
  MRT: 1.55 h
  Tmax: 0.333 h
  half-life: 1.08 ± 0.117 h
[10]; [30]
  AUC(0-t): 5280 ng·h/mL
  Cmax: 2330 ± 390 ng/mL
  MRT: 2.2 h
  Tmax: 0.6 h
  half-life: 1.07 ± 0.2 h
Nonpregnant female rats, blood, coadministration with ritonavir vs nirmatrelvir alone
  increase of Cmax in blood, combined vs alone: threefold
Nonpregnant rats
  protein unbound nirmatrelvir concentrations in blood and brain versus EC90: all higher than the EC90
